Results on 2 compounds are retold here after US11707537B2, “Conformational restriction of cyanine fluorophores in far-red and near-IR range” (The United States of America, as represented by the …, priority 2017, dated 2023).

Marks after values point to notes of the source that are not given here.

Common to all, as to format: physicochemical
A short description of one data set: Fluorescence lifetime. The note with it: for solvent viscosity sensitivity of fluorescence lifetime and quantum yield: solvents of Table 2.
Data set [1] in a line: Fluorescence emission and fluorescence quantum yield. The source says:
All commercially obtained reagents were used as received. 2,3,3-trimethyl indoline (S1), malonaldehyde bis(phenylimine) monohydrochloride, Grubb's 2nd generation and Hoyveda-Grubbs 2nd generation catalysts were purchased from Sigma-Aldrich (St. Louis, Mo.). Acrolein dimethyl acetal (2) was purchased from TCI America (Portland, Oreg.). 4-hydrazinylbenzoic acid (S5) was ordered from Oakwood Chemical (Estill, S.C.). 2-(2-bromoethyl)-1,3-dioxolane was purchased from Acros Organics (Geel, Belgium). NH2-PEG8-COOH was purchased from Thermo Scientific (Waltham, Mass.). Aminophalloidin tosylate was purchased from Enzo, Inc. (Farmingdale, N.Y.). Compounds S2, S4, and S8 were synthesized according to known procedures (Hanessian et al., J. Am. Chem. Soc. 2004, 126 (19), 6064-71; Hall et al., Nucleic Acids Res. 2012, 40 (14), e108; Park et al., Bioconjugate Chem. 2012, 23 (3), 350-362). Normal phase (60 Å, 20-40 m, RediSep® Rf Gold® silica or 60 Å, 35-70 m, RediSep® Rf silica) and reversed phase (100 Å, 20-40 micron particle size, RediSep® Rf Gold® Reversed-phase C18 or C18Aq) flash column chromatography was performed on a CombiFlash© Rf 200i (Teledyne Isco, Inc., Lincoln, Nebr.). Reversed-phase preparative HPLC was performed using an Agilent 1260 Infinity II LC system utilizing a SunFire Prep C18 column (100 Å, 5 m, 10×150 mm) obtained from Waters, Co (Milford, Mass.). High-resolution LC/MS analyses were conducted on a Thermo-Fisher LTQ-Orbitrap-XL hybrid mass spectrometer system with an Ion MAX API electrospray ion source in negative ion mode. Analytical LC/MS was performed using a Shimadzu LCMS-2020 Single Quadrupole utilizing a Kinetex C18 column (100 Å, 2.6 m, 2.1×50 mm) obtained from Phenomenex, Inc (Torrance, Calif.). Runs employed a gradient of 0-90% MeCN/0.1% aqueous formic acid over 4.5 min at a flow rate of 0.2 mL/min. ^1H NMR and ^13C NMR spectra were recorded on Bruker spectrometers (at 400 or 500 MHz or at 100 or 125 MHz) and are reported relative to deuterated solvent signals. Data for ^1H NMR spectra are reported as follows: chemical shift (6 ppm), multiplicity, coupling constant (Hz), and integration. Data for ^13C NMR spectra are reported in terms of chemical shift. Absorbance curves were obtained on a Shimadzu UV-2550 spectrophotometer operated by UVProbe 2.32 software. Molar absorption coefficients (F) were determined in PBS (50 mM, pH 7.4) or methanol (MeOH) using Beer's law, from plots of absorbance vs. concentration. Measurements were performed in 10 mm path length quartz cuvettes (Hellma 111-QS) that were maintained at room temperature, and reported values are averages (n≥3). Fluorescence traces were recorded on a PTI QuantaMaster steady-state spectrofluorimeter operated by FelixGX 4.2.2 software, with 4 nm excitation and emission slit widths, and a 0.1 s integration rate. […] Chem. Chem. Phys. 112009, 9850-9860). This instrument uses an integrating sphere to measure photons absorbed and emitted by a sample. […] Reported values are averages (n≥5). Data analysis and curve fitting were performed using MS Excel 2011 and GraphPad Prism 7. Light intensity measurements were performed with a Thorlabs PM200 optical power and energy meter fitted with an S120VC standard Si photodiode power sensor (200-1100 nm, 50 nW-50 mW). See JOC Standard Abbreviations and Acronyms for abbreviations (http://pubs.acs.org/paragonplus/submission/joceah/-joceah_abbreviations.pdf).

A short description of data set [2]: Absorbance and molar absorption coefficient (Beer's law). As to conditions: for shift in λmax: relative to unrestricted compound 10. The source says:
All commercially obtained reagents were used as received. 2,3,3-trimethyl indoline (S1), malonaldehyde bis(phenylimine) monohydrochloride, Grubb's 2nd generation and Hoyveda-Grubbs 2nd generation catalysts were purchased from Sigma-Aldrich (St. Louis, Mo.). Acrolein dimethyl acetal (2) was purchased from TCI America (Portland, Oreg.). 4-hydrazinylbenzoic acid (S5) was ordered from Oakwood Chemical (Estill, S.C.). 2-(2-bromoethyl)-1,3-dioxolane was purchased from Acros Organics (Geel, Belgium). NH2-PEG8-COOH was purchased from Thermo Scientific (Waltham, Mass.). Aminophalloidin tosylate was purchased from Enzo, Inc. (Farmingdale, N.Y.). Compounds S2, S4, and S8 were synthesized according to known procedures (Hanessian et al., J. Am. Chem. Soc. 2004, 126 (19), 6064-71; Hall et al., Nucleic Acids Res. 2012, 40 (14), e108; Park et al., Bioconjugate Chem. 2012, 23 (3), 350-362). Normal phase (60 Å, 20-40 m, RediSep® Rf Gold® silica or 60 Å, 35-70 m, RediSep® Rf silica) and reversed phase (100 Å, 20-40 micron particle size, RediSep® Rf Gold® Reversed-phase C18 or C18Aq) flash column chromatography was performed on a CombiFlash© Rf 200i (Teledyne Isco, Inc., Lincoln, Nebr.). Reversed-phase preparative HPLC was performed using an Agilent 1260 Infinity II LC system utilizing a SunFire Prep C18 column (100 Å, 5 m, 10×150 mm) obtained from Waters, Co (Milford, Mass.). High-resolution LC/MS analyses were conducted on a Thermo-Fisher LTQ-Orbitrap-XL hybrid mass spectrometer system with an Ion MAX API electrospray ion source in negative ion mode. Analytical LC/MS was performed using a Shimadzu LCMS-2020 Single Quadrupole utilizing a Kinetex C18 column (100 Å, 2.6 m, 2.1×50 mm) obtained from Phenomenex, Inc (Torrance, Calif.). Runs employed a gradient of 0-90% MeCN/0.1% aqueous formic acid over 4.5 min at a flow rate of 0.2 mL/min. ^1H NMR and ^13C NMR spectra were recorded on Bruker spectrometers (at 400 or 500 MHz or at 100 or 125 MHz) and are reported relative to deuterated solvent signals. Data for ^1H NMR spectra are reported as follows: chemical shift (6 ppm), multiplicity, coupling constant (Hz), and integration. Data for ^13C NMR spectra are reported in terms of chemical shift. Absorbance curves were obtained on a Shimadzu UV-2550 spectrophotometer operated by UVProbe 2.32 software. Molar absorption coefficients (F) were determined in PBS (50 mM, pH 7.4) or methanol (MeOH) using Beer's law, from plots of absorbance vs. concentration. Measurements were performed in 10 mm path length quartz cuvettes (Hellma 111-QS) that were maintained at room temperature, and reported values are averages (n≥3). Fluorescence traces were recorded on a PTI QuantaMaster steady-state spectrofluorimeter operated by FelixGX 4.2.2 software, with 4 nm excitation and emission slit widths, and a 0.1 s integration rate. A Quantaurus-QY spectrometer (Hamamatsu, model C11374) was used to determine absolute fluorescence quantum yields (ΦF) (Suzuki et al., Phys. Chem. Chem. Phys. 112009, 9850-9860). This instrument uses an integrating sphere to measure photons absorbed and emitted by a sample. Measurements were carried out at a concentration of 250 nM in either MeOH or PBS (50 mM, pH 7.4) and self-absorption corrections were performed using the instrument software. Reported values are averages (n≥5). Data analysis and curve fitting were performed using MS Excel 2011 and GraphPad Prism 7. Light intensity measurements were performed with a Thorlabs PM200 optical power and energy meter fitted with an S120VC standard Si photodiode power sensor (200-1100 nm, 50 nW-50 mW). See JOC Standard Abbreviations and Acronyms for abbreviations (http://pubs.acs.org/paragonplus/submission/joceah/-joceah_abbreviations.pdf).

Data set [3] is described as follows: Temperature dependence of fluorescence emission. The note with it: in ethanol. The text has this: FIG. 7 is a graph showing the temperature dependence of fluorescence emission from compounds 4 (squares) and 10 (circles) in ethanol.
This is also due to photoisomerization in compound 10, which becomes more efficient at higher temperatures. The substantially longer lifetimes of compounds 4 and 7 relative to the unrestrained cyanine 10 point to significant potential for fluorescence lifetime imaging microscopy (FLIM).

A short description of data set [4]: TCEP addition, formation of phosphine-polyene adducts. As to conditions: 10 μM, TCEP in Tris (0.20 M, pH 9.0), absorbance at λmax. As for the experimental part: FIG. 9 is a graph showing the effect of TCEP addition on absorbance of compound 7 and AF647 (10 μM each). Absorbance at λmax (compound 7 at 670 nm and AF647 at 650 nm) as a function of TCEP concentration in Tris (0.20 M, pH 9.0).
The formation of phosphine and thiol adducts in chemical and single molecule imaging contexts was also evaluated. TCEP (tris(2-carboxyethyl)phosphine) was add to compound 7 and AF647 (Alexa Fluor 647, available through ThermoFisher Scientific) (10 μM each) (Vaughan et al., JACS 2013, 135(4):1197-1200). Absorbance at λmax (compound 7 at 670 nm and AF647 at 650 nm) as a function of TCEP concentration in Tris (0.20 M, pH 9.0). Compound 7 (circles) appeared resistant to the formation of polyene-heteroatom adducts (FIG. 9).

As to `CC1(C)C2=C3C=C4C=C5C6=[N+](CC[C@H]5O[C@H]4C[C@H]3CCN2c2ccccc21)c1ccccc1C6(C)C` [Compound 4], the τ in “Fluorescence lifetime” (Acetone) is given as 2.9 ns; in “Fluorescence lifetime” (EtOH) it was 2.5 ns; in the data set “Fluorescence lifetime” (Glycerol) it was 2.3 ns; in the data set “Fluorescence lifetime” (MeCN), 2.8 ns; in the data set “Fluorescence lifetime” (in methanol (MeOH)) it was 2.5 ns. Further, the “solvent viscosity sensitivity of fluorescence lifetime and quantum yield” value in the data set “Fluorescence lifetime” is “largely solvent viscosity insensitive”. Also, the ΦF in data set [1] (Acetone, calculated by relative method) is given as 0.90; in data set [1] (EtOH, calculated by relative method), 0.68; in data set [1] (Glycerol, calculated by relative method) it was 0.66; in data set [1] (MeCN, calculated by relative method), 0.92; in data set [1] (in methanol (MeOH), integrating sphere) it was 0.69. The compound also showed a λem in data set [1] (in methanol) of 677 nm. For the same compound, in data set [2] (in methanol), the ε is given as 206,000 M^−1cm^−1. In data set [2] (in methanol), this compound had a λmax of 662 nm. In addition, the “shift in λmax” value in data set [2] is “approximately 25 nm”. The “temperature sensitivity of fluorescence emission” value in data set [3] is “insensitive to temperature”.
With `CC1(C)C2=C3C=C4C=C5C6=[N+](CC[C@H]5O[C@H]4C[C@H]3CCN2c2ccc(S(=O)(=O)[O-])cc21)c1ccc(C(=O)O)cc1C6(C)C` [Compound 7], the “formation of polyene-heteroatom adducts” value in data set [4] is given as “resistant”. For the same compound, the τ in “Fluorescence lifetime” (in H2O) is given as 1.7^c ns. In addition, the “solvent viscosity sensitivity of fluorescence lifetime and quantum yield” value in the data set “Fluorescence lifetime” was “largely solvent viscosity insensitive”. In addition, in data set [1] (in pH 7.4 PBS), the λem is on record as 683^b nm. Further, the λmax in data set [2] (in pH 7.4 PBS) is on record as 670^b nm. In addition, in data set [2] (no solvent footnote on this cell (PBS or methanol)), the ε was 190,000 M^−1cm^−1. Further, the “shift in λmax” value in data set [2] is given as “approximately 25 nm”.
